Species on record: Rattus norvegicus
Assay: Open TG-GATES - Regimen: Single
Type: toxicity, organism-based, Sprague-Dawley
Design: regimen Single, gender Male, age 6 weeks
Conditions: in vivo, po, 100 mg/kg, route gavage, dose level Middle; for APTT / Bas / Eos / Fbg / Hb / Ht / Lym / MCH / MCHC / MCV / Mono / Neu / PT / Plat / RBC / Ret / WBC: tissue Blood; for KIDNEY_L / KIDNEY_R / KIDNEY_TOTAL: tissue Kidney; for LIVER: tissue Liver; for A/G / ALP / ALT / AST / BUN / CRE / Ca / Cl / DBIL / GLC / IP / K / LDH / Na / PL / RALB / TBIL / TC / TG / TP / gamma-GTP: tissue Plasma

C[C@]12CCC(=O)C=C1CC[C@@H]1[C@@H]2CC[C@@]2(C)[C@H]1CC[C@]2(C)O [METHYLTESTOSTERONE]
TERMINAL_BW (3 h): 202.8 g
APTT (3 h): 15.1 s
Bas (3 h): 0%
Eos (3 h): 1%
Fbg (3 h): 298.8 mg/dL
Hb (3 h): 12.9 g/dL
Ht (3 h): 37.9%
Lym (3 h): 72.2%
MCH (3 h): 22.2 pg
MCHC (3 h): 34.1%
MCV (3 h): 65 fL
Mono (3 h): 4.2%
Neu (3 h): 22.4%
PT (3 h): 13.1 s
Plat (3 h): 111.5 x10_4/uL
RBC (3 h): 582.8 x10_4/ul
Ret (3 h): 8.9%
WBC (3 h): 65.4 x10_2/uL
KIDNEY_L (3 h): 0.9 g
KIDNEY_R (3 h): 0.9 g
KIDNEY_TOTAL (3 h): 1.8 g
LIVER (3 h): 9.3 g
A/G (3 h): 0.9
ALP (3 h): 1276.2 IU/L
ALT (3 h): 45.6 IU/L
AST (3 h): 74 IU/L
BUN (3 h): 11 mg/dL
CRE (3 h): 0.2 mg/dL
Ca (3 h): 11 mg/dL
Cl (3 h): 106.2 meq/L
DBIL (3 h): 0.01 mg/dL
GLC (3 h): 184.8 mg/dL
IP (3 h): 9.6 mg/dL
K (3 h): 4.3 meq/L
LDH (3 h): 73.8 IU/L
Na (3 h): 141.2 meq/L
PL (3 h): 136.2 mg/dL
RALB (3 h): 2.5 g/dL
TBIL (3 h): 0.042 mg/dL
TC (3 h): 74 mg/dL
TG (3 h): 63 mg/dL
TP (3 h): 5.4 g/dL
gamma-GTP (3 h): 1 IU/L
TERMINAL_BW (6 h): 202.3 g
APTT (6 h): 16.9 s
Bas (6 h): 0%
Eos (6 h): 1%
Fbg (6 h): 274.4 mg/dL
Hb (6 h): 13 g/dL
Ht (6 h): 37.9%
Lym (6 h): 74.4%
MCH (6 h): 21.5 pg
MCHC (6 h): 34.3%
MCV (6 h): 62.6 fL
Mono (6 h): 3.6%
Neu (6 h): 20.8%
PT (6 h): 13.4 s
Plat (6 h): 103.9 x10_4/uL
RBC (6 h): 606.6 x10_4/ul
Ret (6 h): 8.3%
WBC (6 h): 68.3 x10_2/uL
KIDNEY_L (6 h): 0.9 g
KIDNEY_R (6 h): 0.9 g
KIDNEY_TOTAL (6 h): 1.8 g
LIVER (6 h): 8.3 g
A/G (6 h): 0.9
ALP (6 h): 1515.6 IU/L
ALT (6 h): 38 IU/L
AST (6 h): 75.6 IU/L
BUN (6 h): 9.4 mg/dL
CRE (6 h): 0.2 mg/dL
Ca (6 h): 10.7 mg/dL
Cl (6 h): 107.4 meq/L
DBIL (6 h): 0.014 mg/dL
GLC (6 h): 181.6 mg/dL
IP (6 h): 9.8 mg/dL
K (6 h): 4.3 meq/L
LDH (6 h): 56 IU/L
Na (6 h): 141.2 meq/L
PL (6 h): 126.4 mg/dL
RALB (6 h): 2.5 g/dL
TBIL (6 h): 0.048 mg/dL
TC (6 h): 64 mg/dL
TG (6 h): 49.4 mg/dL
TP (6 h): 5.3 g/dL
gamma-GTP (6 h): 1.2 IU/L
TERMINAL_BW (9 h): 203.2 g
APTT (9 h): 16.2 s
Bas (9 h): 0%
Eos (9 h): 1%
Fbg (9 h): 296 mg/dL
Hb (9 h): 13.2 g/dL
Ht (9 h): 38.4%
Lym (9 h): 76.8%
MCH (9 h): 21.5 pg
MCHC (9 h): 34.3%
MCV (9 h): 62.9 fL
Mono (9 h): 2.8%
Neu (9 h): 18.8%
PT (9 h): 13.5 s
Plat (9 h): 112.3 x10_4/uL
RBC (9 h): 611.6 x10_4/ul
Ret (9 h): 8.1%
WBC (9 h): 69 x10_2/uL
KIDNEY_L (9 h): 0.9 g
KIDNEY_R (9 h): 0.8 g
KIDNEY_TOTAL (9 h): 1.7 g
LIVER (9 h): 8.1 g
A/G (9 h): 0.9
ALP (9 h): 1516.6 IU/L
ALT (9 h): 37.8 IU/L
AST (9 h): 70.2 IU/L
BUN (9 h): 8.2 mg/dL
CRE (9 h): 0.2 mg/dL
Ca (9 h): 10.5 mg/dL
Cl (9 h): 107.6 meq/L
DBIL (9 h): 0.016 mg/dL
GLC (9 h): 177.6 mg/dL
IP (9 h): 10.4 mg/dL
K (9 h): 4.3 meq/L
LDH (9 h): 69.4 IU/L
Na (9 h): 141.8 meq/L
PL (9 h): 119.2 mg/dL
RALB (9 h): 2.5 g/dL
TBIL (9 h): 0.046 mg/dL
TC (9 h): 53.6 mg/dL
TG (9 h): 89.8 mg/dL
TP (9 h): 5.3 g/dL
gamma-GTP (9 h): 1.2 IU/L
TERMINAL_BW (24 h): 205.5 g
APTT (24 h): 16.9 s
Bas (24 h): 0%
Eos (24 h): 1%
Fbg (24 h): 278.2 mg/dL
Hb (24 h): 13.1 g/dL
Ht (24 h): 38.5%
Lym (24 h): 77.6%
MCH (24 h): 21.5 pg
MCHC (24 h): 34.1%
MCV (24 h): 62.9 fL
Mono (24 h): 3%
Neu (24 h): 18.2%
PT (24 h): 13.3 s
Plat (24 h): 117.9 x10_4/uL
RBC (24 h): 613 x10_4/ul
Ret (24 h): 7.7%
WBC (24 h): 94.4 x10_2/uL
KIDNEY_L (24 h): 0.9 g
KIDNEY_R (24 h): 0.9 g
KIDNEY_TOTAL (24 h): 1.8 g
LIVER (24 h): 9.5 g
A/G (24 h): 0.9
ALP (24 h): 1929.2 IU/L
ALT (24 h): 51.2 IU/L
AST (24 h): 76.2 IU/L
BUN (24 h): 14.8 mg/dL
CRE (24 h): 0.2 mg/dL
Ca (24 h): 11.1 mg/dL
Cl (24 h): 105.6 meq/L
DBIL (24 h): 0.022 mg/dL
GLC (24 h): 189.2 mg/dL
IP (24 h): 8.5 mg/dL
K (24 h): 4.3 meq/L
LDH (24 h): 97.8 IU/L
Na (24 h): 140.6 meq/L
PL (24 h): 142 mg/dL
RALB (24 h): 2.6 g/dL
TBIL (24 h): 0.032 mg/dL
TC (24 h): 65.4 mg/dL
TG (24 h): 141 mg/dL
TP (24 h): 5.6 g/dL
gamma-GTP (24 h): 1.4 IU/L

From ChEMBL document CHEMBL3885861, “Open TG-GATES”
